Data published in patent US20150141336A1, “Pancreatic Peptide Compounds and Use” (Novo Nordisk A/S, priority 2012, published 2015).
Numbered stars: 1 amine (or outer) side, 2 acyl side, 3 side chain; on linkers, the order of the positions; unused ones are H or OH. Side chains are listed from the residue outwards. Peptide text beside a SMILES is read from it. * marks the point of attachment. C18 diacid = O=C(O)CCCCCCCCCCCCCCCCC(=O)*; γGlu = O=C(O)[C@H](CCC(=O)[*:2])N[*:1]; AEEA = NCCOCCOCC(=O)O

test: Assay (II) PK i.v. minipig, in vivo half-life; set-up: species or system Göttingen mini-pigs; conditions: male, Göttingen, minipig, iv
How it was run: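 Male Göttingen mini-pigs (18–22 kg, n=5) received 6 nmol/kg i.v. via central catheter, formulated in 50 mM K2HPO4, 0.05% tween 80, pH 8.0. EDTA plasma sampled pre-dose to 240 h, quantified by TFC/LC/MS/MS (MRM, range 1-2000 nmol/l); half-life from non-compartmental analysis per animal.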

Structure (SMILES)	Half-life minipig, Assay (II) [h]
CC[C@H](C)[C@H](NC(=O)[C@H](Cc1ccc(O)cc1)NC(=O)[C@H](CCCNC(=N)N)NC(=O)[C@H](CCCNC(=N)N)NC(=O)[C@H](CC(C)C)NC(=O)[C@H](CC(=O)O)NC(=O)[C@H](C)NC(=O)[C@H](C)NC(=O)[C@H](Cc1ccc(O)cc1)NC(=O)[C@H](CCC(N)=O)NC(=O)[C@H](C)NC(=O)[C@H](CCSC)NC(=O)[C@H](CCC(N)=O)NC(=O)[C@H](CCC(=O)O)NC(=O)[C@@H]1CCCN1C(=O)[C@@H](NC(=O)[C@H](C)NC(=O)[C@H](CC(N)=O)NC(=O)[C@H](CC(=O)O)NC(=O)CNC(=O)[C@@H]1CCCN1C(=O)[C@H](Cc1ccc(O)cc1)NC(=O)[C@@H](NC(=O)[C@@H]1CCCN1C(=O)[C@H](CCC(=O)O)NC(=O)[C@H](CC(C)C)NC(=O)[C@@H]1CCCN1C(=O)COCCOCCNC(=O)COCCOCCNC(=O)CC[C@H](NC(=O)CCCCCCCCCCCCCCCCC(=O)O)C(=O)O)C(C)C)[C@@H](C)O)C(=O)N[C@@H](CC(N)=O)C(=O)N[C@@H](CCSC)C(=O)N[C@@H](CC(C)C)C(=O)N[C@H](C(=O)N[C@@H](CCCNC(=N)N)C(=O)N1CCC[C@H]1C(=O)N[C@@H](CCCNC(=N)N)C(=O)N[C@@H](Cc1ccc(O)cc1)C(N)=O)[C@@H](C)O [Compound AF]	36

same assay, conditions: male, Göttingen, minipig, iv, Half-life minipig, Assay (II)

Structure (SMILES)	half-life [h]
CC[C@H](C)[C@H](NC(=O)[C@H](Cc1ccc(O)cc1)NC(=O)[C@H](CCCCNC(=O)COCCOCCNC(=O)COCCOCCNC(=O)CC[C@H](NC(=O)CCCCCCCCCCCCCCCCC(=O)O)C(=O)O)NC(=O)[C@H](CCCNC(=N)N)NC(=O)[C@H](CC(C)C)NC(=O)[C@H](CC(=O)O)NC(=O)[C@H](C)NC(=O)[C@H](C)NC(=O)[C@H](Cc1ccc(O)cc1)NC(=O)[C@H](CCC(N)=O)NC(=O)[C@H](C)NC(=O)[C@H](CCSC)NC(=O)[C@H](CCC(N)=O)NC(=O)[C@H](CCC(=O)O)NC(=O)[C@@H]1CCCN1C(=O)[C@@H](NC(=O)[C@H](C)NC(=O)[C@H](CC(N)=O)NC(=O)[C@H](CC(=O)O)NC(=O)CNC(=O)[C@@H]1CCCN1C(=O)[C@H](Cc1ccc(O)cc1)NC(=O)[C@@H](NC(=O)[C@@H]1CCCN1C(=O)[C@H](CCC(=O)O)NC(=O)[C@H](CC(C)C)NC(=O)[C@@H]1CCCN1)C(C)C)[C@@H](C)O)C(=O)N[C@@H](CC(N)=O)C(=O)N[C@@H](CCSC)C(=O)N[C@@H](CC(C)C)C(=O)N[C@H](C(=O)N[C@@H](CCCNC(=N)N)C(=O)N1CCC[C@H]1C(=O)N[C@@H](CCCNC(=N)N)C(=O)N[C@@H](Cc1ccc(O)cc1)C(N)=O)[C@@H](C)O [Compound H]	62
CC[C@H](C)[C@H](NC(=O)[C@H](Cc1ccc(O)cc1)NC(=O)[C@H](CCCNC(=N)N)NC(=O)[C@H](CCCNC(=N)N)NC(=O)[C@H](CC(C)C)NC(=O)[C@H](CC(=O)O)NC(=O)[C@H](C)NC(=O)[C@H](C)NC(=O)[C@H](Cc1ccc(O)cc1)NC(=O)[C@H](CCC(N)=O)NC(=O)[C@H](C)NC(=O)[C@H](CCSC)NC(=O)[C@H](CCC(N)=O)NC(=O)[C@H](CCC(=O)O)NC(=O)[C@@H]1CCCN1C(=O)[C@@H](NC(=O)[C@H](C)NC(=O)[C@H](CC(N)=O)NC(=O)[C@H](CC(=O)O)NC(=O)CNC(=O)[C@@H]1CCCN1C(=O)[C@H](Cc1ccc(O)cc1)NC(=O)[C@@H](NC(=O)[C@@H]1CCCN1C(=O)[C@H](CCC(=O)O)NC(=O)[C@H](CC(C)C)NC(=O)[C@@H]1CCCN1C(=O)COCCOCCNC(=O)COCCOCCNC(=O)CC[C@H](NC(=O)CCCCCCCCCCCCCCCCC(=O)O)C(=O)O)C(C)C)[C@@H](C)O)C(=O)N[C@@H](CC(N)=O)C(=O)N[C@@H](CCSC)C(=O)N[C@@H](CC(C)C)C(=O)N[C@H](C(=O)N[C@@H](CCCNC(=N)N)C(=O)N1CCC[C@H]1C(=O)N[C@@H](CCCNC(=N)N)C(=O)N[C@@H](Cc1ccc(O)cc1)C(N)=O)[C@@H](C)O [Compound AF]	33
CC[C@H](C)[C@H](NC(=O)[C@H](Cc1ccc(O)cc1)NC(=O)[C@H](CCCNC(=N)N)NC(=O)[C@H](CCCNC(=N)N)NC(=O)[C@H](CC(C)C)NC(=O)[C@H](CC(=O)O)NC(=O)[C@H](C)NC(=O)[C@H](C)NC(=O)[C@H](Cc1ccc(O)cc1)NC(=O)[C@H](CCC(N)=O)NC(=O)[C@H](C)NC(=O)[C@H](CCSC)NC(=O)[C@H](CCC(N)=O)NC(=O)[C@H](CCC(=O)O)NC(=O)[C@@H]1CCCN1C(=O)[C@@H](NC(=O)[C@H](C)NC(=O)[C@H](CC(N)=O)NC(=O)[C@H](CCCCNC(=O)COCCOCCNC(=O)COCCOCCNC(=O)CC[C@H](NC(=O)CCCCCCCCCCCCCCCCC(=O)O)C(=O)O)NC(=O)CNC(=O)[C@@H]1CCCN1C(=O)[C@H](Cc1ccc(O)cc1)NC(=O)[C@@H](NC(=O)[C@@H]1CCCN1C(=O)[C@H](CCC(=O)O)NC(=O)[C@@H](N)CC(C)C)C(C)C)[C@@H](C)O)C(=O)N[C@@H](CC(N)=O)C(=O)N[C@@H](CCSC)C(=O)N[C@@H](CC(C)C)C(=O)N[C@H](C(=O)N[C@@H](CCCNC(=N)N)C(=O)N1CCC[C@H]1C(=O)N[C@@H](CCCNC(=N)N)C(=O)N[C@@H](Cc1ccc(O)cc1)C(N)=O)[C@@H](C)O [Compound BF]	17
CC[C@H](C)[C@H](NC(=O)[C@H](Cc1ccc(O)cc1)NC(=O)[C@H](CCCNC(=N)N)NC(=O)[C@H](CCCNC(=N)N)NC(=O)[C@H](CC(C)C)NC(=O)[C@H](CC(=O)O)NC(=O)[C@H](C)NC(=O)[C@H](C)NC(=O)[C@H](Cc1ccc(O)cc1)NC(=O)[C@H](CCC(N)=O)NC(=O)[C@H](C)NC(=O)[C@H](CCCCNC(=O)COCCOCCNC(=O)COCCOCCNC(=O)CC[C@H](NC(=O)CCCCCCCCCCCCCCCCC(=O)O)C(=O)O)NC(=O)[C@H](CCC(N)=O)NC(=O)[C@H](CCC(=O)O)NC(=O)[C@@H]1CCCN1C(=O)[C@@H](NC(=O)[C@H](C)NC(=O)[C@H](CC(N)=O)NC(=O)[C@H](CC(=O)O)NC(=O)CNC(=O)[C@@H]1CCCN1C(=O)[C@H](Cc1ccc(O)cc1)NC(=O)[C@@H](NC(=O)[C@@H]1CCCN1C(=O)[C@H](CCC(=O)O)NC(=O)[C@@H](N)CC(C)C)C(C)C)[C@@H](C)O)C(=O)N[C@@H](CC(N)=O)C(=O)N[C@@H](CCSC)C(=O)N[C@@H](CC(C)C)C(=O)N[C@H](C(=O)N[C@@H](CCCNC(=N)N)C(=O)N1CCC[C@H]1C(=O)N[C@@H](CCCNC(=N)N)C(=O)N[C@@H](Cc1ccc(O)cc1)C(N)=O)[C@@H](C)O [Compound AY] (H-LEPVYPGDNATPEQK([AEEA-AEEA-γGlu-C18 diacid])AQYAADLRRYINMLTRPRY-NH2; N-terminus and C-terminus assumed)	25

The remaining lines, values ahead:

half-life [h]	Structure (SMILES)
71	CC[C@H](C)[C@H](NC(=O)[C@H](Cc1ccc(O)cc1)NC(=O)[C@H](CCCNC(=N)N)NC(=O)[C@H](CCCNC(=N)N)NC(=O)[C@H](CC(C)C)NC(=O)[C@H](CC(=O)O)NC(=O)[C@H](C)NC(=O)[C@H](C)NC(=O)[C@H](Cc1ccc(O)cc1)NC(=O)[C@H](CCC(N)=O)NC(=O)[C@H](CCCCNC(=O)COCCOCCNC(=O)COCCOCCNC(=O)CC[C@H](NC(=O)CCCCCCCCCCCCCCCCC(=O)O)C(=O)O)NC(=O)[C@H](CCSC)NC(=O)[C@H](CCC(N)=O)NC(=O)[C@H](CCC(=O)O)NC(=O)[C@@H]1CCCN1C(=O)[C@@H](NC(=O)[C@H](C)NC(=O)[C@H](CC(N)=O)NC(=O)[C@H](CC(=O)O)NC(=O)CNC(=O)[C@@H]1CCCN1C(=O)[C@H](Cc1ccc(O)cc1)NC(=O)[C@@H](NC(=O)[C@@H]1CCCN1C(=O)[C@H](CCC(=O)O)NC(=O)[C@H](CC(C)C)NC(=O)[C@@H]1CCCN1)C(C)C)[C@@H](C)O)C(=O)N[C@@H](CC(N)=O)C(=O)N[C@@H](CCSC)C(=O)N[C@@H](CC(C)C)C(=O)N[C@H](C(=O)N[C@@H](CCCNC(=N)N)C(=O)N1CCC[C@H]1C(=O)N[C@@H](CCCNC(=N)N)C(=O)N[C@@H](Cc1ccc(O)cc1)C(N)=O)[C@@H](C)O [Compound P] (H-PLEPVYPGDNATPEQMK([AEEA-AEEA-γGlu-C18 diacid])QYAADLRRYINMLTRPRY-NH2; N-terminus and C-terminus assumed)
30	CC[C@H](C)[C@H](NC(=O)[C@H](Cc1ccc(O)cc1)NC(=O)[C@H](CCCNC(=N)N)NC(=O)[C@H](CCCNC(=N)N)NC(=O)[C@H](CC(C)C)NC(=O)[C@H](CCCCNC(=O)COCCOCCNC(=O)COCCOCCNC(=O)CC[C@H](NC(=O)CCCCCCCCCCCCCCCCC(=O)O)C(=O)O)NC(=O)[C@H](C)NC(=O)[C@H](C)NC(=O)[C@H](Cc1ccc(O)cc1)NC(=O)[C@H](CCC(N)=O)NC(=O)[C@H](C)NC(=O)[C@H](CCSC)NC(=O)[C@H](CCC(N)=O)NC(=O)[C@H](CCC(=O)O)NC(=O)[C@@H]1CCCN1C(=O)[C@@H](NC(=O)[C@H](C)NC(=O)[C@H](CC(N)=O)NC(=O)[C@H](CC(=O)O)NC(=O)CNC(=O)[C@@H]1CCCN1C(=O)[C@H](Cc1ccc(O)cc1)NC(=O)[C@@H](NC(=O)[C@@H]1CCCN1C(=O)[C@H](CCC(=O)O)NC(=O)[C@H](CC(C)C)NC(=O)[C@@H]1CCCN1)C(C)C)[C@@H](C)O)C(=O)N[C@@H](CC(N)=O)C(=O)N[C@@H](CCSC)C(=O)N[C@@H](CC(C)C)C(=O)N[C@H](C(=O)N[C@@H](CCCNC(=N)N)C(=O)N1CCC[C@H]1C(=O)N[C@@H](CCCNC(=N)N)C(=O)N[C@@H](Cc1ccc(O)cc1)C(N)=O)[C@@H](C)O [Compound K] (H-PLEPVYPGDNATPEQMAQYAAK([AEEA-AEEA-γGlu-C18 diacid])LRRYINMLTRPRY-NH2; N-terminus and C-terminus assumed)
35	CC[C@H](C)[C@H](NC(=O)[C@H](Cc1ccc(O)cc1)NC(=O)[C@H](CCCNC(=N)N)NC(=O)[C@H](CCCNC(=N)N)NC(=O)[C@H](CC(C)C)NC(=O)[C@H](CC(=O)O)NC(=O)[C@H](C)NC(=O)[C@H](C)NC(=O)[C@H](Cc1ccc(O)cc1)NC(=O)[C@H](CCC(N)=O)NC(=O)[C@H](C)NC(=O)[C@H](CCSC)NC(=O)[C@H](CCC(N)=O)NC(=O)[C@H](CCCCNC(=O)COCCOCCNC(=O)COCCOCCNC(=O)CC[C@H](NC(=O)CCCCCCCCCCCCCCCCC(=O)O)C(=O)O)NC(=O)[C@@H]1CCCN1C(=O)[C@@H](NC(=O)[C@H](C)NC(=O)[C@H](CC(N)=O)NC(=O)[C@H](CC(=O)O)NC(=O)CNC(=O)[C@@H]1CCCN1C(=O)[C@H](Cc1ccc(O)cc1)NC(=O)[C@@H](NC(=O)[C@@H]1CCCN1C(=O)[C@H](CCC(=O)O)NC(=O)[C@H](CC(C)C)NC(=O)[C@@H]1CCCN1)C(C)C)[C@@H](C)O)C(=O)N[C@@H](CC(N)=O)C(=O)N[C@@H](CCSC)C(=O)N[C@@H](CC(C)C)C(=O)N[C@H](C(=O)N[C@@H](CCCNC(=N)N)C(=O)N1CCC[C@H]1C(=O)N[C@@H](CCCNC(=N)N)C(=O)N[C@@H](Cc1ccc(O)cc1)C(N)=O)[C@@H](C)O [Compound S] (H-PLEPVYPGDNATPK([AEEA-AEEA-γGlu-C18 diacid])QMAQYAADLRRYINMLTRPRY-NH2; N-terminus and C-terminus assumed)
